# Experimental data taken from patent US12606797B2, “Methods of detection of mechanically-activated platelet activation and uses thereof” (Arizona Board of Regents on Behalf of the University of …, priority 2018, dated 2026).
# Experiments:
# [1] = system: procoagulant activity of gel-filtered platelets; assay: Prothrombinase-based Platelet Activation State (PAS) assay, thrombin generation on platelet surface; format: cell-based, human; details: platelets 5×10^3 cells/μL, 200 nM acetylated prothrombin, 100 pM factor Xa, 37° C., 10 minutes
# Excerpt: PAS was quantified by chemically modified prothrombinase-based chromogenic assay developed by Jesty and Bluestein (Jesty & Bluestein, Anal. Biochem. (1999), Jesty et al., Platelets, vol. 14, no. 3, pp. 143-149, 2003). The assay measures the rate of acetylated thrombin generation from acetylated proenzyme cleavage by factor Xa in presence of activated platelets. […] Activated, but not resting, platelets present factor Va and negatively charged phospholipids (mostly phosphatidylserine) on their surface for prothrombinase complex formation and thrombin generation. Thus, the rate of enzymatic cleavage of chromogenic substrate Chromozym TH (Tosyl-Gly-Pro-Arg-4-nitranilide acetate, Roche Diagnostics GmbH, Mannheim, Germany) by acetylated thrombin reflects the value of initial activation state of the platelets tested (Jesty & Bluestein, Anal. Biochem. (1999), Rubenstein et al., Circulation, (2004)).
# Platelet samples preliminary stimulated with biochemical activators, shear or sonication (platelet count—5×10^3 cells/μL) were incubated with 200 nM acetylated prothrombin, 100 pM factor Xa (Enzyme Research Laboratories, South Bend, IN), 5 mM CaCl2) in a volume of 100 μL 20 mM HEPES, pH 7.4, containing 130 mM NaCl and 0.1% BSA at 37° C. for 10 minutes. Then, 10 μL of each timed sample was measured for thrombin activity in microplate wells, containing 0.3 mM Cromozyme TH, 3 mM EDTA in 20 mM HEPES, pH 7.4, containing 130 mM NaCl and 0.1% BSA. Kinetic change of absorbance (λ=405 nm) was measured for 7 minutes at room temperature using microplate reader Versa MAX (Molecular Devices Corp., Sunnyvale, CA). The value of PAS or initial rate of thrombin generation was calculated as a slope of kinetic curve (ΔA405/min) with SoftMax Pro6 Software.
# [2] = system: phosphatidylserine externalization on gel-filtered platelets; assay: Annexin V binding assay of phosphatidylserine externalization (flow cytometry); format: cell-based, human; details: GFP, 2.5 mM CaCl2; for annexin V binding after platelet stimulation (in words): agonist taken alone
# Protocol: (§1) To induce biochemical activation, GFP (2×10^4 platelets/μL, final volume 100 μL) were treated with biochemical agonists mentioned above in presence of 2.5 mM CaCl2), mixed gently and incubated undisturbed for 15 minutes at room temperature. Then APC-conjugated anti-CD62P (clone Psel.KO2.3, eBioscience, San Diego, CA) and FITC-labeled annexin V (eBioscience, San Diego, CA) were added to indicate platelet a-granule secretion and phosphatidylserine externalization (PSE) during platelet biochemical activation. Integrin GP αIIbβ3 activation was evaluated by double-staining technique. […] A pair of antibodies against αIIbβ3 was added simultaneously into a test tube containing activated platelet sample to identify the number of platelets exposing activated αIIbβ3 among all αIIbβ3-expressing platelet population. Cells were incubated with annexin V or antibodies for 30 minutes at room temperature in the dark, washed by centrifugation (5000 rpm, 5 min), resuspended in 1 ml of Ca-free 0.05 M phosphate buffer (pH-7.4) and transferred in polystyrene tube for flow cytometry. Flow cytometry analysis was performed within 15 minutes after sample preparation.
# (§2) Flow cytometry was performed on FACS Canto II (BD Biosciences, San Jose, CA) using the following configurations: HeNe red laser (633 nm) and 660/20 filter—for APC, solid state blue laser (488 nm) and 530/30 filter—for FITC-stained cell detection. Single platelets were distinguished from their aggregates and microparticles based on their characteristic forward versus side scatter. […] BD FACSDiva™ software was applied to analyze flow cytometry data statistics (percentage of marker-positive platelets among whole platelet population and their median fluorescence intensity).
# To detect phosphatidylserine exposure, an annexin V binding assay is extensively utilized. The principle of the assay is based on the high affinity binding of protein annexin V labeled with fluorescence dye to phosphatidylserine on platelet surface with the aid of Ca2+ ions (Demchenko, Cytotechnology, vol. 65, no. 2, pp. 157-72, March (2013)).
# [3] = system: P-selectin exposure on gel-filtered platelets; assay: Flow cytometry of platelet P-selectin exposure (anti-CD62P-APC) after biochemical activation; format: cell-based, human; details: 2.5 mM CaCl2, room temperature; for number of CD62P-positive cells, % of whole platelet population: GFP 2×10^4 platelets/μL, 10 uM ADP, 10 μg/mL epinephrine, 1 mM arachidonic acid, gate ≥3000 AU; for P-selectin exposure (in words): GFP, 32 μM TRAP6, 1 U/mL thrombin, 100 μg/mL collagen
# Protocol: as §1, §2
# (§3) To define the molecular signature of SMPA, biochemical versus mechanical platelet activation by uniform shear stress applied in the hemodynamic shearing device (HSD) was compared. […] Mechanical platelet activation was obtained via GFP exposure to uniform continuous shear in HSD as described above in “Shear-mediated platelet activation”. Physiologically relevant shear stress levels (30 and 50 dynes/cm^2) close to those found in blood stream vs. sub-pathological shear conditions (70 dynes/cm^2) existing within MCS were examined. Initially, the P-selectin exposure, as a known marker of platelet activation and α-granule secretion, was detected employing mono immunostaining and quantified by flow cytometry. Those cells showing high fluorescence intensity (≥3000 AU) were gated as P-selectin positive platelets and marked as sub-population P6 (FIGS. 2A-2G).
# [4] = system: integrin GPIIb/IIIa activation on gel-filtered platelets; assay: Flow cytometry of integrin GPIIb/IIIa activation (anti-CD41/CD61-FITC PAC-1 and anti-CD41-APC double staining); format: cell-based, human; details: for number of platelets presenting activated GPIIb/IIIa (CD41/CD61-positive among CD41-positive) / elevation of number of platelets presenting activated GPIIb/IIIa as compared with intact platelets: GFP, 10 uM ADP, 1 U/mL thrombin; for number of platelets presenting activated GPIIb/IIIa (CD41/CD61-positive among CD41-positive): 2.5 mM CaCl2, gate ≥4000 AU, intact platelets 6.7±2.9%; for number of CD41/CD61-positive platelets following GFP stimulation (in words): 2.5 mM CaCl2, vs intact platelets
# Protocol: as §1, §2
# To assess the magnitude of integrin GPIIb/IIIa activation after platelet stimulation with constant shear or biochemical agonists, the number of whole GPIIb/IIIa-positive platelet population was compared with the number of those presenting activated form of the integrin on their membrane. For this purpose, double staining with APC-conjugated anti-CD41 and FITC-conjugated anti-CD41/CD61 was applied as describe in the methods described above. Among parental CD41-positive platelet population, CD41/CD61-positive cells were distinguished based on their FITC-fluorescence intensity level (≥4000 AU) and assumed as presenting activated form of integrin GPIIb/IIIa on their surface (FIGS. 4A-4G, sub-population P3).
# [5] = system: human platelets (GFP, PRP); assay: Platelet aggregation induced with biochemical agonists (optical aggregometer); format: cell-based; details: 1 mM CaCl2, 5 min, 37° C.; for ability to induce platelet aggregation in GFP: gel-filtered platelets, 32 μM TRAP6, 1 U/mL thrombin, 100 μg/mL collagen, 1 mM arachidonic acid
# Protocol: Platelet aggregation was assessed in PRP or GFP samples employing dual channel optical aggregometer (Model 560-VS, Chrono-Log Corporation, Havertown, PA). […] Platelet count in aggregation mixture was adjusted to 150-200×10^3 plt/μL (in GFP) and to 300-350×10^3 plt/μL (in PRP), final CaCl2 concentration was 1 mM. Aggregation was started by adding mentioned agonists and running for 5 minutes at 37° C. with 1000 rpm stirring. The changes in relative light transmittance were recorded, and arbitrary values for each aggregation curve were calculated with Aggrolink software (Chrono-Log Corporation, Havertown, PA).
# as §3
# human platelets = details: not sensitive to cyclooxygenase inhibitors; cited from earlier work
Compound,"thrombin generation / amidolytic activity in presence of stimulated platelets (PAS assay, in words) [1]",annexin V binding after platelet stimulation (in words) [2],"number of CD62P-positive cells, % of whole platelet population [3] [%]",number of platelets presenting activated GPIIb/IIIa (CD41/CD61-positive among CD41-positive) [4] [%],elevation of number of platelets presenting activated GPIIb/IIIa as compared with intact platelets [4] [times],"ability to induce platelet aggregation in PRP ([5]; platelet-rich plasma, 10 uM ADP, 10 μg/mL epinephrine)","number of annexin V-positive platelets, % of whole platelet population ([2]; arachidonic acid 1 mM) [%]",AA concentration required for Ca^2+ influx (human platelets) [µM],number of CD41/CD61-positive platelets following GFP stimulation (in words) [4],ability to induce platelet aggregation in GFP [5],P-selectin exposure (in words) [3]
"Nc1ncnc2c1ncn2[C@@H]1O[C@H](COP(=O)(O)OP(=O)(O)O)[C@@H](O)[C@H]1O [ADP, Adenosine DiPhosphate]",no amidolytic activity was detected,No annexin V binding,46.8±3.9,28.0±8.9,4.2,induce platelet aggregation,,,,,
CCCCC/C=C\C/C=C\C/C=C\C/C=C\CCCC(=O)O [arachidonic acid],comparable with sonicated GFP sample,,52.1±6.8,,,,52.12±6.79,60,not significantly elevated,induce platelet aggregation,
CNC[C@H](O)c1ccc(O)c(O)c1 [epinephrine],no amidolytic activity was detected,No annexin V binding,18.6±1.5,,,,,,not significantly elevated,,
collagen,no amidolytic activity was detected,No annexin V binding,,,,,,,not significantly elevated,induce platelet aggregation,failed to induce high P-selectin exposure
thrombin,,No annexin V binding,,63.5±10.2,9.6,,,,,induce platelet aggregation,dramatic augmentation of P-selectin exposure
thrombin receptor activating peptide-6 [TRAP-6],no amidolytic activity was detected,No annexin V binding,,,,,,,not significantly elevated,induce platelet aggregation,dramatic augmentation of P-selectin exposure
